Source: article PMC6007354 (2016)

How the values were obtained:
[1] = test system: tRNA (GCGCGCGCGC) (RNA, other) GCGCGCGCGC; assay: 1H NMR titration; settings: 0.01 M HEPES pH 7.4 in D2O; shifts of probe and base protons
[2] = test system: tRNA (AUAUAUAUAU) (RNA, other) AUAUAUAUAU; assay: fluorescence turn-on (443 nm); settings: 10 mM HEPES pH 7.4; probe 10 uM; quantum yield 0.21; no constant
[3] = test system: tRNA (AUAUAUAUAU) (RNA, other) AUAUAUAUAU; assay: 1H NMR titration; settings: 0.01 M HEPES pH 7.4 in D2O; shifts of probe and base protons
[4] = test system: tRNA (GCGCGCGCGC) (RNA, other) GCGCGCGCGC; assay: fluorescence turn-on (443 nm); settings: 10 mM HEPES pH 7.4; probe 10 uM; quantum yield 0.22; no constant

- binding [1]: yes
- binding [2]: yes
- binding [3]: yes
- binding [4]: yes
Structure (SMILES): C[n+]1ccn(Cc2ccc3ccccc3c2)c1
